According to US20240156825A1, “USE OF SELECTIVE VEGFR2 AND FGFR1 INHIBITORS” (Fountain Therapeutics Inc., priority 2022, published 2024):
Like-named read-outs stand apart in the source and are kept apart here.

How the values were obtained:
[1] = target: T1, VEGFR2 (Homo sapiens, UniProt P35968); conditions: relative IC50: reported IC50 toward VEGFR2 divided by next lowest reported IC50 to any gene target
[2] = target: T1, VEGFR2; conditions: reported IC50 to VEGFR2, read-out: VEGFR2 IC50_μM, cited from earlier work
[3] = tested on: any gene target; conditions: next lowest IC50 value to any gene target, read-out: Min IC50_μM, cited from earlier work
[4] = Table 3, selective inhibitors of VEGFR2

T1 sequence (P35968 20-1356, species assumed): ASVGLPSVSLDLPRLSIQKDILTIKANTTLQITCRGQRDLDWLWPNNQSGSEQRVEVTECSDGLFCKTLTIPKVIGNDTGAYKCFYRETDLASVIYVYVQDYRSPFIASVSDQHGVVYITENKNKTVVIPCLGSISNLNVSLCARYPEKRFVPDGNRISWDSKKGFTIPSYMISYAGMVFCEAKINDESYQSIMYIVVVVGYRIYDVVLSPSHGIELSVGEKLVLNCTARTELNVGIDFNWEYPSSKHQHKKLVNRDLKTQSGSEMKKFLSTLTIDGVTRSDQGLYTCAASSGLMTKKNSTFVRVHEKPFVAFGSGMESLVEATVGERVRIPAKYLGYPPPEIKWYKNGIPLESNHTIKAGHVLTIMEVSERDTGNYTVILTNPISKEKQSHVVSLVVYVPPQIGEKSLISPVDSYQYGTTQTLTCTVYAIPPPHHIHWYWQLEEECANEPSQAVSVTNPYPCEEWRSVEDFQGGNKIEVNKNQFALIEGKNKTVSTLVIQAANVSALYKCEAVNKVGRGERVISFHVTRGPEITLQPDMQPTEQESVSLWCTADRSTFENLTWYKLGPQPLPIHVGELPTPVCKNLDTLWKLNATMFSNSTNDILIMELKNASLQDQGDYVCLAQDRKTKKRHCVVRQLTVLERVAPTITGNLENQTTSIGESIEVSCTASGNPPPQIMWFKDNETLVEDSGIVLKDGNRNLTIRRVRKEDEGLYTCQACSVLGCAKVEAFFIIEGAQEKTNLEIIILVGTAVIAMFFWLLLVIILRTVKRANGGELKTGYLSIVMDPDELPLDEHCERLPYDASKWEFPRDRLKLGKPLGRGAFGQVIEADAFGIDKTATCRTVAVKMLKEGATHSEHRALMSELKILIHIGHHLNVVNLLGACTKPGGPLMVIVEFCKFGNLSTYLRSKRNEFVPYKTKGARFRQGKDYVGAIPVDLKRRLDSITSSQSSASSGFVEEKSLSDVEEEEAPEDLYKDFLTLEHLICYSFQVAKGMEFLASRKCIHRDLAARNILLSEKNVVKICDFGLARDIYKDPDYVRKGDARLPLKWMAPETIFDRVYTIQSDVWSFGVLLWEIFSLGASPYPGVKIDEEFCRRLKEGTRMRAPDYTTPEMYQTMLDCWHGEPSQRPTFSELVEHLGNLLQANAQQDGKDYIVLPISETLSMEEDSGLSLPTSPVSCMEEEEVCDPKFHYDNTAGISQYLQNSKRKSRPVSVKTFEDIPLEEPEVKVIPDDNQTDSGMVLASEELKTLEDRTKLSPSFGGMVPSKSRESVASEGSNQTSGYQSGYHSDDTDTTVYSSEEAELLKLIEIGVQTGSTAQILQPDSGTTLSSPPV

VEGFR2, rIC50 [1] | SMILES | IC50 [2, 4] [nM] | IC50 ([3]; Table 3) [nM] | IC50 [2] [nM] | IC50 [3] [nM]
1.0 | CONC(=O)c1cc(Nc2ncnn3cc(NC(=O)OCC4CCCO4)c(C(C)C)c23)c(F)cc1F (centres unmarked) [compound 11477626, [4-(2,4-Difluoro-5-methoxycarbamoyl-phenylamino)-5-isopropyl-pyrrolo[2,1-f][1,2,4]triazin-6-yl]-carbamic acid tetrahydro-furan-2-ylmethyl ester] |  |  |  | 
 | COc1cc2c(Nc3ccc(Cl)c(Cl)c3)ncnc2cc1OCC1CN(S(C)(=O)=O)CCO1 (centres unmarked) [compound 57802901] | 50 | 50 |  | 
 | COc1cc2c(Nc3ccc(Cl)c(Cl)c3)ncnc2cc1OCC1CN(C(=NC#N)N2CCCC2)CCO1 (centres unmarked) [compound 57802904] | 50 | 50 |  | 
 | COc1cc2c(Nc3ccc(Br)c(Cl)c3F)ncnc2cc1OC[C@@H]1CN2CCC[C@H]2CO1 [compound 57802905] | 50 | 50 |  | 
 | CCC(=O)N1CCOC(COc2cc3ncnc(Nc4ccc(Cl)c(Cl)c4)c3cc2OC)C1 (centres unmarked) [compound 57802906] | 50 | 50 |  | 
 | COc1cc2c(Nc3ccc(Cl)c(Cl)c3)ncnc2cc1OCc1csc(N2CCN(C)CC2)n1 [compound 57802910] | 50 | 50 |  | 
 | COc1cc2c(Nc3cc(F)c(Br)cc3F)ncnc2cc1OCC1CN(C)CCO1 (centres unmarked) [compound 57802916] | 50 | 50 |  | 
 | CCN1CCCCC1c1nc(COc2cc3ncnc(Nc4ccc(Cl)c(Cl)c4)c3cc2OC)no1 (centres unmarked) [compound 57802919] | 50 | 50 |  | 
 | CCN1CCCC(c2nc(COc3cc4ncnc(Nc5ccc(Cl)c(Cl)c5)c4cc3OC)no2)C1 (centres unmarked) [compound 58013772] | 50 | 50 |  | 
 | COc1cc2c(Nc3ccc(Br)c(Cl)c3)ncnc2cc1O[C@@H]1CCOC1 [compound 58013780] | 50 | 50 |  | 
 | CCN1CCC(c2nc(COc3cc4ncnc(Nc5ccc(Cl)c(Cl)c5)c4cc3OC)no2)CC1 [compound 58013796] | 50 | 50 |  | 
 | COc1cc2c(Nc3ccc(Cl)c(Cl)c3)ncnc2cc1OCC1CN2CCOCC2CO1 (centres unmarked) [compound 58013804] | 50 | 50 |  | 
 | COc1cc2c(Nc3ccc(F)c(Cl)c3F)ncnc2cc1OC[C@@H]1CN2CCC[C@H]2CO1 [compound 58013819] | 50 | 50 |  | 
 | C[C@@H](Nc1ncnc2[nH]c(-c3ccc(CNCc4ccc(C(=O)NO)cc4)cc3)cc12)c1ccccc1 [compound 59756709] | 100 | 100 |  | 
 | COc1cc2c(Nc3cc(Cl)c(Cl)cc3F)ncnc2cc1OC[C@@H]1CN2CCOC[C@H]2CO1 [compound 66838463] | 50 | 50 |  | 
 | COc1cc2c(Nc3cc(Cl)c(Br)cc3F)ncnc2cc1OC[C@@H]1CN2CCOC[C@H]2CO1 [compound 66838467] | 50 | 50 |  | 
 | COc1cc2c(Nc3ccc(Cl)c(Cl)c3F)ncnc2cc1OC[C@@H]1CN2CCOC[C@H]2CO1 [compound 66838539] | 50 | 50 |  | 
 | COc1cc2c(Nc3ccc(Cl)c(Cl)c3)ncnc2cc1OC[C@H]1CN2CCC[C@H]2CO1 [compound 66838546] | 50 | 50 |  | 
 | COc1cc2c(Nc3ccc(Br)c(Cl)c3Cl)ncnc2cc1OC[C@@H]1CN2CCOC[C@H]2CO1 [compound 66838558] | 50 | 50 |  | 

VEGFR2, rIC50 [1] | SMILES | IC50 [2, 4] [nM] | IC50 ([3]; Table 3) [nM] | IC50 [2] [nM] | IC50 [3] [nM]
 | COc1cc2c(Nc3ccc(F)c(Cl)c3F)ncnc2cc1OC[C@@H]1CN2CCOC[C@H]2CO1 [compound 66838567] | 50 | 50 |  | 
 | COc1cc2c(Nc3cc(Cl)c(Br)cc3F)ncnc2cc1OC[C@@H]1CN2CCC[C@H]2CO1 [compound 66839071] | 50 | 50 |  | 
 | COc1cc2c(Nc3ccc(Br)c(Cl)c3Cl)ncnc2cc1OC[C@@H]1CO[C@H]2[C@@H]1OC[C@@H]2OC [compound 66954887] | 50 | 50 |  | 
 | COc1cc2c(Nc3cc(Cl)c(Cl)cc3F)ncnc2cc1OC[C@@H]1CO[C@H]2[C@@H]1OC[C@@H]2OC [compound 66954904] | 50 | 50 |  | 
 | COc1cc2c(Nc3ccc(Cl)c(Cl)c3)ncnc2cc1OC[C@@H]1CO[C@H]2[C@@H]1OC[C@@H]2OC [compound 66955051] | 50 | 50 |  | 
 | CCN(CC)[C@H]1CO[C@H]2[C@@H]1OC[C@@H]2Oc1cc2ncnc(Nc3ccc(Br)c(Cl)c3)c2cc1OC [compound 67163520] | 50 | 50 |  | 
10.3 | Nc1c(C(=O)c2cc3ccccc3[nH]2)cnn1-c1ccc2nc[nH]c2c1 [compound 68005732, [5-Amino-1-(1H-benzimidazol-6-yl)-1H-pyrazol-4-yl]-1H-indol-2-ylMethanone] |  |  |  | 
 | COc1cc2c(Oc3ccc(NC(=O)C4(C(=O)Nc5ccc(F)cc5)CC4)cc3F)ccnc2cc1OCCCC(=O)NO [compound 71466525] |  |  | 12 | 19
 | O=C(NCCc1ccc(O)c(Br)c1)/C(Cc1cc(Br)c(O)c(Oc2ccc(CCNC(=O)/C(Cc3cc(Br)c(O)c(-c4cc(C/C(=N\O)C(=O)NCCc5ccc(O)c(Br)c5)cc(Br)c4O)c3)=N/O)cc2Br)c1)=N/O [compound 71524406] | 600 | 600 |  | 
 | COc1ccc2c(c1)/C(=C/c1cc3c([nH]1)CCN(C(=O)N1CCN(C)CC1)C3)C(=O)N2 [compound 71714231] | 6 | 6 |  | 
 | CN1CCC(Nc2ccc3c(c2)/C(=C/c2cc4c([nH]2)CCN(C(=O)N2CCOCC2)C4)C(=O)N3)CC1 [compound 71714235] | 3 | 3 |  | 
 | COc1cc2c(Nc3ccc(Cl)cc3F)ncnc2cc1OCC1CCNCC1 [compound 73349643] |  |  | 50 | 60
 | COc1cc2c(Nc3ccc(Cl)cc3F)ncnc2cc1OCCCN1CCCC1 [compound 73352657] | 8 | 8 |  | 
 | COc1cc2c(Nc3cc(O)c(Cl)cc3F)ncnc2cc1OCC1CCN(C)CC1 [compound 73357210] | 3 | 3 |  | 
 | CN=C(NC#N)N1CCOC(COc2cc3ncnc(Nc4ccc(Cl)c(C)c4)c3cc2OC)C1 (centres unmarked) [compound 89125605] | 50 | 50 |  | 
 | CNc1cc2c(cn1)cc(-c1ccc(F)c(NC(=O)Nc3cc(C(C)(C)C)no3)c1)c(=O)n2[C@H]1CCOC1 [compound 122177477] |  |  | 0.46 | 1
 | O=C(Nc1ccc(Oc2ncnc3sc4c(c23)CCCC4)cc1)Nc1cccc(Br)c1 [compound 122193773] |  |  | 11 | 17
 | COc1cc2ncnc(Nc3cccc(Cl)c3)c2cc1OCCC(=O)NO [compound 122195525] |  |  | 476 | 645
 | COc1cc2ncnc(Nc3ccc(F)cc3)c2cc1OCCCC(=O)NO [compound 127026070] |  |  | 376 | 1340

VEGFR2, rIC50 [1] | SMILES | IC50 [2, 4] [nM] | IC50 ([3]; Table 3) [nM] | IC50 [2] [nM] | IC50 [3] [nM]
 | COc1cc2ncnc(Nc3ccccc3Cl)c2cc1OCCCC(=O)NO [compound 127027019] |  |  | 857 | 1260
 | COc1cc2ncnc(Nc3ccc(Cl)cc3)c2cc1OCCCC(=O)NO [compound 127027096] |  |  | 182 | 698
 | COc1cc2ncnc(Nc3ccc(Br)cc3)c2cc1OCCCC(=O)NO [compound 127027714] |  |  | 98 | 545
 | COc1cc2ncnc(Nc3ccc(Br)cc3)c2cc1OCCCCC(=O)NO [compound 127028028] |  |  | 59 | 68
 | CS(=O)(=O)Cc1cccc(Nc2nccc(Oc3ccc4c(C(=O)Nc5cccnc5)cccc4c3)n2)c1 [compound 127037812] |  |  | 0.5 | 4.9
 | COc1cc2c(Nc3ccc(Cl)c(Cl)c3)ncnc2cc1O[C@@H]1C[C@H]2OC[C@H](OC)[C@H]2O1 [compound 134140126] | 50 | 50 |  | 
 | COc1cc2c(Nc3cccc(Cl)c3F)ncnc2cc1OCC1CN(C(N)=NC#N)CCCO1 (centres unmarked) [compound 134142438] | 50 | 50 |  | 
 | COc1cc2c(Nc3ccc(Br)c(Cl)c3Cl)ncnc2cc1OC[C@H]1CN2CCCC[C@H]2CO1 [compound 134150926] | 50 | 50 |  | 
 | COc1cc2c(Nc3cccc(Cl)c3Cl)ncnc2cc1OCC1CN(C(C)=N)CCCO1 (centres unmarked) [compound 134151034] | 50 | 50 |  | 
 | COc1cc2c(Nc3cc(Cl)c(Br)cc3F)ncnc2cc1OCC1COCCN1C (centres unmarked) [compound 134154844] | 50 | 50 |  | 
 | COc1cc2c(Nc3ccc(Br)c(Cl)c3F)ncnc2cc1O[C@@H]1C[C@H]2OC[C@H](OC)[C@H]2O1 [compound 134155171] | 50 | 50 |  | 
 | COC(=O)c1ccc2c(C(=Nc3ccc(N(C)C(=O)Cn4ccnc4)cc3)c3ccccc3)c(O)[nH]c2c1 [compound 135399795] |  |  | 6 | 7
 | CC(C)(Nc1nc(Nc2ccc3ncsc3c2)[nH]c(=O)n1)c1ccccc1 [compound 135454992] |  |  | 35 | 550
 | Nc1ccc2c(c1)C(c1ccccc1Cl)=Nc1cn[nH]c1N2 [compound 136002661] |  |  | 34 | 88
 | CC(=O)Nc1ccc2c(c1)C(c1ccccc1Cl)=Nc1cn[nH]c1N2 [compound 136002662] |  |  | 33 | 38
 | Cc1ccc(NC(=O)C2(C(=O)Nc3ccc(Nc4ncc(F)c(-c5cc(F)c6nc(C)n(C(C)C)c6c5)n4)cc3)CC2)cc1 [compound 155517777] | 46 | 46 |  | 
 | C[C@@H]1CN(C(=O)CCCC(=O)N2C[C@@H](C)c3c2cc(O)c2ccccc32)c2cc(O)c3ccccc3c21 [compound 155536201] |  |  | 330 | 540
 | O=C(CSC(=S)N1CCCCC1)Nc1cccc(NC(=O)c2ccccn2)c1 [compound 155562216] |  |  | 27 | 84
